Test results taken from patent US7161031B2, “Amino-substituted sulfonanilides and derivatives thereof for treating proliferative disorders” (Temple University - Of The Commonwealth System of Higher …, priority 2002, dated 2007).

Assays:
Assay in all cases: Tumor cell killing, viable cell count by trypan blue exclusion
Assay type in all cases: cell-based
BT20 tumor cell line = details: BT20 cells, viable cells counted 96 hours after treatment
Method: (§1) The effect of the amino-substituted sulfonanilides on normal fibroblasts and on tumor cells may be determined by the assay described by Latham et al., Oncogene 12:827–837 (1996). Normal diploid lung human fibroblasts (HFL-1) or tumor cells (e.g., prostate, colorectal, breast, glial, pancreatic, ovarian, lung or leukemic) are plated in 6-well dishes at a cell density of 1.0×10^5 cells per […]. The plated cells are treated 24 hours later with various concentrations of amino-substituted sulfonanilide dissolved in dimethyl sulfoxide (DMSO). The total number of viable cells is determined 96 hours later by trypsinizing the wells and counting the number of viable cells, as determined by trypan blue exclusion, using a hemacytometer. Normal HFL cells are treated with the same compounds under the same conditions of concentration and time. Biological data for compounds of the present invention is shown in Table 5 below in DU145, BT20, DLD1 and H157 tumor cell lines.

DLD1 tumor cell line = details: DLD1 cells, viable cells counted 96 hours after treatment
Method: as §1

DU145 tumor cell line = details: DU145 cells, viable cells counted 96 hours after treatment
Method: as §1

H157 tumor cell line = details: H157 cells, viable cells counted 96 hours after treatment
Method: as §1

Row | Compound | tumor cell killing activity BT20 (BT20 tumor cell line) | tumor cell killing activity DLD1 (DLD1 tumor cell line) | tumor cell killing activity DU145 (DU145 tumor cell line) | tumor cell killing activity H157 (H157 tumor cell line)
1 | COc1cc(OC)c(/C=C/S(=O)(=O)Nc2ccc(OC)c(NCC(=O)N(C)C)c2)c(OC)c1 [Example 1, (E)-2,4,6-Trimethoxystyryl-N-[(3-N,N-dimethylacetamido)-4-methoxyphenyl]sulfonamide] | + (A (+) in the table indicates that the compound showed tumor cell killing activity at a concentration of less than 20 micromolar) | + (A (+) in the table indicates that the compound showed tumor cell killing activity at a concentration of less than 20 micromolar) | + (A (+) in the table indicates that the compound showed tumor cell killing activity at a concentration of less than 20 micromolar) | + (A (+) in the table indicates that the compound showed tumor cell killing activity at a concentration of less than 20 micromolar)
2 | COc1cc(OC)c(/C=C/S(=O)(=O)Nc2ccc(OC)c(NC(C)=O)c2)c(OC)c1 [Example 2, (E)-2,4,6-Trimethoxystyryl-N-[(3-acetamido)4-methoxyphenyl]-sulfonamide] | + (A (+) in the table indicates that the compound showed tumor cell killing activity at a concentration of less than 20 micromolar) | + (A (+) in the table indicates that the compound showed tumor cell killing activity at a concentration of less than 20 micromolar) | + (A (+) in the table indicates that the compound showed tumor cell killing activity at a concentration of less than 20 micromolar) | + (A (+) in the table indicates that the compound showed tumor cell killing activity at a concentration of less than 20 micromolar)
3 | COc1cc(OC)c(/C=C/S(=O)(=O)Nc2ccc(OC)c(NC(=O)COC(C)=O)c2)c(OC)c1 [Example 4, (E)-2,4,6-Trimethoxystyryl-N-[(3-acetoxyacetamido)-4-methoxy-phenyl]sulfonamide] | + (A (+) in the table indicates that the compound showed tumor cell killing activity at a concentration of less than 20 micromolar) | + (A (+) in the table indicates that the compound showed tumor cell killing activity at a concentration of less than 20 micromolar) | + (A (+) in the table indicates that the compound showed tumor cell killing activity at a concentration of less than 20 micromolar) | + (A (+) in the table indicates that the compound showed tumor cell killing activity at a concentration of less than 20 micromolar)
4 | COc1cc(OC)c(/C=C/S(=O)(=O)Nc2ccc(OC)c(NCC(=O)O)c2)c(OC)c1 [Example 5, (E)-2,4,6-Trimethoxystyryl-N-[(3-carboxymethylamino)-4-methoxyphenyl]sulfonamide] | + (A (+) in the table indicates that the compound showed tumor cell killing activity at a concentration of less than 20 micromolar) | + (A (+) in the table indicates that the compound showed tumor cell killing activity at a concentration of less than 20 micromolar) | + (A (+) in the table indicates that the compound showed tumor cell killing activity at a concentration of less than 20 micromolar) | + (A (+) in the table indicates that the compound showed tumor cell killing activity at a concentration of less than 20 micromolar)
5 | COc1cc(OC)c(/C=C/S(=O)(=O)Nc2ccc(OC)c(NC(=O)CO)c2)c(OC)c1 [Example 6, (E)-2,4,6-Trimethoxystyryl-N-[(3-hydroxyacetamido)-4-methoxy-phenyl]sulfonamide] | + (A (+) in the table indicates that the compound showed tumor cell killing activity at a concentration of less than 20 micromolar) | + (A (+) in the table indicates that the compound showed tumor cell killing activity at a concentration of less than 20 micromolar) | + (A (+) in the table indicates that the compound showed tumor cell killing activity at a concentration of less than 20 micromolar) | + (A (+) in the table indicates that the compound showed tumor cell killing activity at a concentration of less than 20 micromolar)
6 | COc1cc(OC)c(/C=C/S(=O)(=O)Nc2ccc(OC)c(NC(=O)CCl)c2)c(OC)c1 [Example 7, (E)-2,4,6-Trimethoxystyryl-N-[(3-chloroacetamido)-4-methoxyphenyl]-sulfonamide] | + (A (+) in the table indicates that the compound showed tumor cell killing activity at a concentration of less than 20 micromolar) | + (A (+) in the table indicates that the compound showed tumor cell killing activity at a concentration of less than 20 micromolar) | + (A (+) in the table indicates that the compound showed tumor cell killing activity at a concentration of less than 20 micromolar) | + (A (+) in the table indicates that the compound showed tumor cell killing activity at a concentration of less than 20 micromolar)
7 | COc1cc(OC)c(/C=C/S(=O)(=O)Nc2ccc(OC)c(NC(=O)CN3CCN(C)CC3)c2)c(OC)c1 [Example 8, (E)-2,4,6-Trimethoxystyryl-N-[3-(4-methylpiperazinyl)-acetamido-4-methoxyphenyl]sulfonamide] | + (A (+) in the table indicates that the compound showed tumor cell killing activity at a concentration of less than 20 micromolar) | + (A (+) in the table indicates that the compound showed tumor cell killing activity at a concentration of less than 20 micromolar) | + (A (+) in the table indicates that the compound showed tumor cell killing activity at a concentration of less than 20 micromolar) | + (A (+) in the table indicates that the compound showed tumor cell killing activity at a concentration of less than 20 micromolar)
8 | (E)-2,4,6-Trimethoxystyryl-N-[(3-amino)-4-methoxyphenyl]-sulfonamide-L-lysineamide hydrochloride [Example 3] | + (A (+) in the table indicates that the compound showed tumor cell killing activity at a concentration of less than 20 micromolar) | + (A (+) in the table indicates that the compound showed tumor cell killing activity at a concentration of less than 20 micromolar) | + (A (+) in the table indicates that the compound showed tumor cell killing activity at a concentration of less than 20 micromolar) | + (A (+) in the table indicates that the compound showed tumor cell killing activity at a concentration of less than 20 micromolar)
